Read-outs that look alike come from different tables or passages of the source.
Tests used:
Assay type in all cases: in vivo
Spodoptera littoralis = Spodoptera littoralis (Egyptian cotton leaf worm) leaf disc test; settings: foliar, 72 h, application rate 200 ppm, cotton leaf discs sprayed, L1 larvae, 3 days after infestation, read-out: control (at least one of mortality, anti-feedant effect, growth inhibition)
Protocol: Spodoptera littoralis (Egyptian Cotton Leaf Worm)
Cotton leaf discs were placed on agar in 24-well microtiter plates and sprayed with aqueous test solutions prepared from 10′000 ppm DMSO stock solutions. After drying the leaf discs were infested with five L1 larvae. The samples were assessed for mortality, anti-feedant effect, and growth inhibition in comparison to untreated samples 3 days after infestation. Control of Spodoptera littoralis by a test sample is when at least one of mortality, anti-feedant effect, and growth inhibition is higher than the untreated sample.

Plutella xylostella = Plutella xylostella (diamond back moth) artificial diet test; settings: 120 h, read-out: control (mortality and growth inhibition)
Protocol: Plutella xylostella (Diamond Back Moth):
24-well microtiter plates with artificial diet were treated with aqueous test solutions prepared from 10′000 ppm DMSO stock solutions by pipetting. After drying, the plates were infested with L2 larvae (10 to 15 per well). The samples were assessed for mortality and growth inhibition in comparison to untreated samples 5 days after infestation.

Tetranychus urticae = Tetranychus urticae (two-spotted spider mite) leaf disc test; settings: foliar, 192 h, application rate 200 ppm, bean leaf discs sprayed, 8 days after infestation, read-out: control (mortality on mixed population, mobile stages)
Protocol: Tetranychus urticae (Two-Spotted Spider Mite):
Bean leaf discs on agar in 24-well microtiter plates were sprayed with aqueous test solutions prepared from 10′000 ppm DMSO stock solutions. After drying the leaf discs were infested with a mite population of mixed ages. The samples were assessed for mortality on mixed population (mobile stages) 8 days after infestation.

Thrips tabaci = Thrips tabaci (onion thrips) leaf disc test; settings: foliar, 144 h, read-out: control (mortality)
Protocol: Thrips tabaci (Onion Thrips):
Sunflower leaf discs were placed on agar in 24-well microtiter plates and sprayed with aqueous test solutions prepared from 10′000 ppm DMSO stock solutions. After drying the leaf discs were infested with a thrips population of mixed ages. The samples were assessed for mortality 6 days after infestation.

Myzus persicae = Myzus persicae (green peach aphid) leaf disc test; settings: foliar, 144 h, read-out: control (mortality)
Protocol: Myzus persicae (Green Peach Aphid):
Sunflower leaf discs were placed on agar in a 24-well microtiter plate and sprayed with test solutions at an application rate of 200 ppm. After drying, the leaf discs were infested with an aphid population of mixed ages. After an incubation period of 6 DAT, samples were checked for mortality.

Diabrotica Balteata = test: Diabrotica balteata (corn root worm) maize sprout test; settings: 96 h, read-out: control (mortality and growth inhibition)
Protocol: Diabrotica Balteata, (Corn Root Worm)
Maize sprouts, placed on an agar layer in 24-well microtiter plates were treated with aqueous test solutions prepared from 10′000 ppm DMSO stock solutions by spraying. After drying, the plates were infested with L2 larvae (6 to 10 per well). The samples were assessed for mortality and growth inhibition in comparison to untreated samples 4 days after infestation.

[1] = application rate 200 ppm, artificial diet, L2 larvae, 5 days after infestation
[2] = application rate 200 ppm, sunflower leaf discs sprayed, mixed ages, 6 days after infestation
[3] = application rate 200 ppm, sunflower leaf discs sprayed, mixed ages, 6 DAT
[4] = application rate 200 ppm, maize sprouts sprayed, L2 larvae, 4 days after infestation

Cn1nc(OS(=O)(=O)C(F)(C(F)(F)F)C(F)(F)F)c(C(F)(F)F)c1-n1cc(-c2ccc(Cl)c(C(N)=O)c2)cn1 [Compound 67, [5-[4-(3-carbamoyl-4-chloro-phenyl)pyrazol-1-yl]-1-methyl-4-(trifluoromethyl)pyrazol-3-yl] 1,1,1,2,3,3,3-heptafluoropropane-2-sulfonate]
≥ 80%: percent control (mortality, anti-feedant effect or growth inhibition) at 200 ppm (Spodoptera littoralis) | mortality at 200 ppm (Plutella xylostella; [1]) | mortality at 200 ppm (Tetranychus urticae)

CCN(C(=O)c1cc(-c2cnn(-c3c(C(F)(F)F)c(OS(=O)(=O)C(F)(F)C(F)(F)Cl)nn3C)c2)ccc1Cl)C1CC1 [Compound 10, [5-[4-[4-chloro-3-[cyclopropyl(ethyl)carbamoyl]phenyl]pyrazol-1-yl]-1-methyl-4-(trifluoromethyl)pyrazol-3-yl] 2-chloro-1,1,2,2-tetrafluoro-ethanesulfonate]
≥ 80%: percent control (mortality, anti-feedant effect or growth inhibition) at 200 ppm (Spodoptera littoralis) | mortality at 200 ppm (Thrips tabaci; [2]) | mortality at 200 ppm (Plutella xylostella; [1]) | mortality at 200 ppm (Myzus persicae; [3]) | mortality at 200 ppm (Diabrotica Balteata; [4]) | mortality at 200 ppm (Tetranychus urticae)

Cn1nc(OS(=O)(=O)C(F)(C(F)(F)F)C(F)(F)F)c(C(F)(F)F)c1-n1cc(-c2cnc(Cl)c(C(=O)NC3(C#N)CC3)c2)cn1 [Compound 24, [5-[4-[6-chloro-5-[(1-cyanocyclopropyl)carbamoyl]-3-pyridyl]pyrazol-1-yl]-1-methyl-4-(trifluoromethyl)pyrazol-3-yl] 1,1,1,2,3,3,3-heptafluoropropane-2-sulfonate]
≥ 80%: percent control (mortality, anti-feedant effect or growth inhibition) at 200 ppm (Spodoptera littoralis) | mortality at 200 ppm (Plutella xylostella; [1]) | mortality at 200 ppm (Diabrotica Balteata; [4]) | mortality at 200 ppm (Tetranychus urticae)

CCN(C(=O)c1cc(-c2cnn(-c3c(C(F)(F)F)c(OS(=O)(=O)C(F)(C(F)(F)F)C(F)(F)F)nn3C)c2)cnc1Cl)C1CC1 [Compound 23, [5-[4-[6-chloro-5-[cyclopropyl(ethyl)carbamoyl]-3-pyridyl]pyrazol-1-yl]-1-methyl-4-(trifluoromethyl)pyrazol-3-yl] 1,1,1,2,3,3,3-heptafluoropropane-2-sulfonate]
≥ 80%: percent control (mortality, anti-feedant effect or growth inhibition) at 200 ppm (Spodoptera littoralis) | mortality at 200 ppm (Plutella xylostella; [1]) | mortality at 200 ppm (Myzus persicae; [3]) | mortality at 200 ppm (Diabrotica Balteata; [4]) | mortality at 200 ppm (Tetranychus urticae)

Cn1nc(OS(=O)(=O)C(F)(C(F)(F)F)C(F)(F)F)c(C(F)(F)F)c1-n1cc(-c2ccc(Cl)c(C(=O)NC3(C(F)F)CC3)c2)cn1 [Compound 64, [5-[4-[4-chloro-3-[[1-(difluoromethyl)cyclopropyl]carbamoyl]phenyl]pyrazol-1-yl]-1-methyl-4-(trifluoromethyl)pyrazol-3-yl] 1,1,1,2,3,3,3-heptafluoropropane-2-sulfonate]
≥ 80%: percent control (mortality, anti-feedant effect or growth inhibition) at 200 ppm (Spodoptera littoralis) | mortality at 200 ppm (Plutella xylostella; [1]) | mortality at 200 ppm (Myzus persicae; [3]) | mortality at 200 ppm (Tetranychus urticae)

Cn1nc(OS(=O)(=O)C(F)(F)C(F)(F)Cl)c(C(F)(F)F)c1-n1cc(-c2ccc(Cl)c(C(=O)NC3(C#N)CC3)c2)cn1 [Compound 8, [5-[4-[4-chloro-3-[(1-cyanocyclopropyl)carbamoyl]phenyl]pyrazol-1-yl]-1-methyl-4-(trifluoromethyl)pyrazol-3-yl] 2-chloro-1,1,2,2-tetrafluoro-ethanesulfonate]
≥ 80%: percent control (mortality, anti-feedant effect or growth inhibition) at 200 ppm (Spodoptera littoralis) | mortality at 200 ppm (Thrips tabaci; [2]) | mortality at 200 ppm (Plutella xylostella; [1]) | mortality at 200 ppm (Myzus persicae; [3]) | mortality at 200 ppm (Diabrotica Balteata; [4]) | mortality at 200 ppm (Tetranychus urticae)

Cn1nc(OS(=O)(=O)C(F)(F)C(F)(F)C(F)(F)C(F)(F)F)c(C(F)(F)F)c1-n1cc(-c2cnc(Cl)c(C(=O)NC3CC3)c2)cn1 [Compound 27, [5-[4-[6-chloro-5-(cyclopropylcarbamoyl)-3-pyridyl]pyrazol-1-yl]-1-methyl-4-(trifluoromethyl)pyrazol-3-yl] 1,1,2,2,3,3,4,4,4-nonafluorobutane-1-sulfonate]
≥ 80%: percent control (mortality, anti-feedant effect or growth inhibition) at 200 ppm (Spodoptera littoralis) | mortality at 200 ppm (Thrips tabaci) | mortality at 200 ppm (Plutella xylostella) | mortality at 200 ppm (Myzus persicae) | mortality at 200 ppm (Diabrotica Balteata)

CCN(C(=O)c1cc(-c2cnn(-c3c(C(F)(F)F)c(OS(=O)(=O)C(F)(F)C(F)(F)F)nn3C)c2)ccc1Cl)C1CC1 [Compound 14, [5-[4-[4-chloro-3-[cyclopropyl(ethyl)carbamoyl]phenyl]pyrazol-1-yl]-1-methyl-4-(trifluoromethyl)pyrazol-3-yl] 1,1,2,2,2-pentafluoroethanesulfonate]
≥ 80%: percent control (mortality, anti-feedant effect or growth inhibition) at 200 ppm (Spodoptera littoralis) | mortality at 200 ppm (Thrips tabaci; [2]) | mortality at 200 ppm (Plutella xylostella; [1]) | mortality at 200 ppm (Myzus persicae; [3]) | mortality at 200 ppm (Diabrotica Balteata; [4])

CCN(C(=O)c1cc(-c2cnn(-c3c(C(F)(F)F)c(OS(=O)(=O)C(F)(F)C(F)(F)C(F)(F)C(F)(F)F)nn3C)c2)cnc1Cl)C1CC1 [Compound 29, [5-[4-[6-chloro-5-[cyclopropyl(ethyl)carbamoyl]-3-pyridyl]pyrazol-1-yl]-1-methyl-4-(trifluoromethyl)pyrazol-3-yl] 1,1,2,2,3,3,4,4,4-nonafluorobutane-1-sulfonate]
≥ 80%: mortality at 200 ppm (Plutella xylostella) | mortality at 200 ppm (Myzus persicae) | mortality at 200 ppm (Diabrotica Balteata)

CCN(C(=O)c1cc(-c2cc(-c3c(C(F)(F)F)c(OS(=O)(=O)C(F)(F)C(F)(F)C(F)(F)C(F)(F)F)nn3C)no2)ccc1Cl)C1CC1 [Compound 41, [5-[5-[4-chloro-3-[cyclopropyl(ethyl)carbamoyl]phenyl]isoxazol-3-yl]-1-methyl-4-(trifluoromethyl)pyrazol-3-yl] 1,1,2,2,3,3,4,4,4-nonafluorobutane-1-sulfonate]
≥ 80%: mortality at 200 ppm (Myzus persicae) | mortality at 200 ppm (Diabrotica Balteata)

Cn1nc(OS(=O)(=O)C(F)(C(F)(F)F)C(F)(F)F)c(C(F)(F)F)c1-n1cc(-c2ccc(Cl)c(C(=O)N(/C(F)=C(\F)C(F)(F)F)C3(C#N)CC3)c2)cn1 [Compound 58, [5-[4-[4-chloro-3-[(1-cyanocyclopropyl)-[(E)-1,2,3,3,3-pentafluoroprop-1-enyl]carbamoyl]phenyl]pyrazol-1-yl]-1-methyl-4-(trifluoromethyl)pyrazol-3-yl] 1,1,1,2,3,3,3-heptafluoropropane-2-sulfonate]
≥ 80%: percent control (mortality, anti-feedant effect or growth inhibition) at 200 ppm (Spodoptera littoralis) | mortality at 200 ppm (Plutella xylostella; [1]) | mortality at 200 ppm (Diabrotica Balteata; [4]) | mortality at 200 ppm (Tetranychus urticae)

Cn1nc(OS(=O)(=O)C(F)(F)C(F)(F)F)c(C(F)(F)F)c1-n1cc(-c2ccc(Cl)c(C(=O)NC3CC3)c2)cn1 [Compound 20, [5-[4-[4-chloro-3-(cyclopropylcarbamoyl)phenyl]pyrazol-1-yl]-1-methyl-4-(trifluoromethyl)pyrazol-3-yl] 1,1,2,2,2-pentafluoroethanesulfonate]
≥ 80%: percent control (mortality, anti-feedant effect or growth inhibition) at 200 ppm (Spodoptera littoralis) | mortality at 200 ppm (Thrips tabaci; [2]) | mortality at 200 ppm (Plutella xylostella; [1]) | mortality at 200 ppm (Diabrotica Balteata; [4]) | mortality at 200 ppm (Tetranychus urticae)

Reference: patent publication US11071300B2, “Pesticidally active pyrazole derivatives” (SYNGENTA PARTICIPATIONS AG, priority 2017, dated 2021)
